Experimental data: US8268849B2, “Multifunctional Antioxidants and methods of use thereof” (priority 2007, dated 2012)

Legend:
[1] = Chelation study by ESI-MS, Cu^1+ solution; type: binding; settings: 10:1 metal:compound, 45 minutes of mixing
Method: (§1) The relative amount of ions bound by JHX-1-JHX-8 was determined by electrospray ionization mass spectrometry (ESI-MS) according to the method of Baron and Hering (Baron and Hering (1998) Spectrometry J. Environ. Qual., 27:844-850). In this method solutions containing Fe^2+, Fe^3+, Cu^1+, Cu^2+, Zn^2+, Ca^2+, Mg^2+ were mixed with compound in ratios of 10:1, 1:1, and 1:10. After 45 minutes of mixing, each solution was directly infused into the MS with constant ionization energy and the relative decreases of the parent peaks in these solutions were determined. […] FIG. 3 illustrates ion binding with increased Fe^+2 concentrations results in decreased compound parent peak heights by ESI-MS when compounds contain appropriate functional groups for metal ion chelation.

[2] = Chelation study by ESI-MS, Cu^2+ solution; type: binding; settings: 10:1 metal:compound, 45 minutes of mixing
Method: as §1

[3] = Chelation study by ESI-MS, Zn^2+ solution; type: binding; settings: 10:1 metal:compound, 45 minutes of mixing
Method: as §1

[4] = Chelation study by ESI-MS, Ca^2+ solution; type: binding; settings: 10:1 metal:compound, 45 minutes of mixing
Method: as §1

[5] = Chelation study by ESI-MS, Mg^2+ solution; type: binding; settings: 10:1 metal:compound, 45 minutes of mixing
Method: as §1

[6] = Chelation studies by ESI-MS, overall statement on ion binding; settings: binding order Cu^1+=Cu^2+>Fe^2+=Fe^3+>Zn^2+; no binding with Ca^2+ or Mg^2+
Method: as §1

[7] = test system: SRA-1 human lens epithelium cell line; assay: MTS cell viability assay; type: cell-based; settings: 1.0 mM H2O2, 2 hours, 1 mM compound
Method: The SRA-1 human lens epithelium cell line (Ibaraki et al. (1998) Exp. Eye Res., 67:577-85) was used to evaluate the antioxidant activity of JHX-1-8. […] The cells were passaged when 80-90% confluent by treatment with trypsin-EDTA. The cells were plated at a density of 1×10^4 cells onto 96-well plates or 1×10^6 cells onto 100-mm dishes. ROS levels/effects in cells treated with JHX-1-8 were compared to similar cells treated with the water soluble Vitamin E derivative, Trolox (antioxidant control) or no drug (control). […] Cells were cultured in 96-well plates and exposed for 2 hours to media containing 1.0 mM H2O2 (FIG. 5A) or Fenton reagents (1.0 mM H2O2 and 1.0 mM Fe^2+, FIG. 5B) with/without 1 mM JHX-1-8 or Trolox. Viability was measured as the absorbance of MTS stain at 490 nm 1 hour after the addition of 20 μL of […] AQueous One Solution Cell Proliferation Assay to each well. The results were normalized to blank control (100%) since absorbance is directly proportional to the living cell population.

[8] = test system: diabetic cataract formation; assay: Cataract formation in diabetic rats; type: in vivo; settings: for blood sugar / toxic effects: diabetic rats; for delay of vacuole formation / delay of cortical cataracts / lens sorbitol levels: streptozotocin diabetic rats; for delay of vacuole formation / delay of cortical cataracts: 0.025% in chow; for delay of vacuole formation: versus untreated diabetic group (14 days); for delay of cortical cataracts: versus untreated diabetic group (29 days); for lens sorbitol levels: end of study (47 days)
Method: (§2) Diabetes was induced in 100 g Sprague Dawley rats with streptozotocin injection (75 mg/kg) and all rats with blood sugar levels >300 mg/dL were divided into 4 groups of 8 rats each. One group received only standard rat chow (untreated diabetic) while each of the other groups received chow containing either 0.0125% ARI Al1576, 0.025% JHX-4 or 0.025% JHX-8. Lens changes were monitored by at 3-5 day intervals by slit lamp following tropicamide mydriasis. As summarized in FIGS. 8A-8C, vacuole formation began by 14 days in the untreated diabetic group with cortical opacities observed by 29 days and mature cataracts by 44 days. […] In the two antioxidant treated groups, vacuole formation was delayed by 19 and 11 days by JHX-4 and JHX-8, respectively, and cortical cataracts by 9 and 3 days, respectively. At the end of the study (47 days) all rats were equally diabetic with HbA1C levels >11.9%. All eyes were enucleated and lens sorbitol levels were measured as previously described (Kador et al. (2007) J. Ocul. Pharmacol. Ther., 23:116-23). […] Tissue levels of JHX-4 and -8 in the lens, neural retina and brain were determined after 47 days of feeding as described above (FIG. 10). […] Overall drug levels in both the lens and retina were ca. 3-fold higher in the diabetic rats with brain levels also now present. This increase may be due to either an accumulation of drug, or increased permeability of tissues and the BBB to drug in streptozotocin diabetic rats (Mooradian et al. (2005) Diabetes, 54:2977-82).

[9] = Tissue drug levels in diabetic rats after 47 days of feeding; type: in vivo, Sprague Dawley rats
Method: To determine whether JHX-4 and JHX-8 can reach the target tissues of lens, retina and brain after oral administration, two groups of 4 young (100 g) Sprague Dawley rats were administered rat chow containing 0.05% of either drug for 6 days. […] Lens and posterior segments were homogenized in glass homogenizers in ice-cold PBS, pH 7.4, after addition of an aliquot of JHX-1 as an internal standard. The homogenates were deproteinized with 48 mM NaF and centrifuged. The supernatant was extracted with acetone. The acetone extract was evaporated under vacuum and the residue was dissolved in acetonitrile. Whole brains were similarly extracted; however, brain homogenates were deproteinized with equal amounts of 0.3 N Na2SO4 and 0.3 N Ba(OH)2. Drug levels were measured by reverse-phase HPLC with a Phenomenex LUNA 5 μm C18 column and an isocratic elution of 1:1 MeOH:Water. Detection was conducted at 245 nm and compound levels were quantified using standard curves. Lens and retinal drug levels were 200±11 and 1373±38 ng/mg protein for JHX-4 and 90±5 and 1060±12 ng/mg protein for JHX-8 respectively. Only trace amounts of either compound were detected in the brain.
as §2

[10] = test system: lens opacities after whole head irradiation; type: in vivo; settings: for appearance of lens opacities / delay of lens PSC opacities / delay of the average (50% in all animals) formation of PSC punctuate opacities: 15 Gy whole head irradiation; for delay of lens PSC opacities / delay of the average (50% in all animals) formation of PSC punctuate opacities: compared to untreated rats, JHX 0.025 wt % in chow, Pantethine 1 g/kg i.p.; for toxic effects: irradiated rats
Description: Cataracts were induced by whole head gamma irradiation in 24 male Long Evans (150-200 g) rats. […] Because of the amount of drug required for this long-term study, the percentage of JHX-4 and JHX-8 utilized was ½ of the dose used in the diabetic study. […] Gamma radiation (6000 Curie Cobalt-60 Source, UNMC Experimental Radiation Facility) was delivered to the whole head of unanesthetized, restrained rats at a dose rate of dose 0.341 Gy/minute for a total dose of 15 Gy. Lens changes were monitored every 7 days by portable slit lamp and recorded on a scale from 0-6 with 0: Clear, 1: Posterior subcapsular haze, 2: Spokes, suture enhancement and powdery posterior subcapsular deposits, 3: Prominent posterior subcapsular punctate opacities with spokes and suture enhancement, 4: Posterior subcapsular opacity blocks appearance of retinal vessels, 5: Start cortical involvement, 6: Total lens opacity, visible with naked eye. Since whole head irradiation results in a temporary loss of salivary gland function, all rats received Nutra-Gel (Bio-Serv) with/without JHX-4 or -8 for the first 66 days. Subsequently, all rats received standard rat chow with/without JHX-4 or -8.

SMILES	% Parent Peak Remaining at 10:1 Solution of Metal:Compound [1] [%]	% Parent Peak Remaining at 10:1 Solution of Metal:Compound [2] [%]	% Parent Peak Remaining at 10:1 Solution of Metal:Compound [3] [%]	% Parent Peak Remaining at 10:1 Solution of Metal:Compound [4] [%]	% Parent Peak Remaining at 10:1 Solution of Metal:Compound [5] [%]	ion binding [6]	protection against H2O2 induced loss of cell viability [7]	blood sugar [8]	toxic effects [8]	delay of vacuole formation [8] [days]	delay of cortical cataracts [8] [days]	lens sorbitol levels [8]	brain levels of drug [9]	drug levels in both the lens and retina, diabetic rats versus normal rats [9]	appearance of lens opacities [10]	delay of lens PSC opacities [10] [days]	delay of the average (50% in all animals) formation of PSC punctuate opacities [10] [days]	toxic effects [10]
CN(C)S(=O)(=O)N1C(=O)CN(c2ncc(O)cn2)CC1=O [JHX-4, 1-N,N′-dimethylsulfamoyl-4-(5-hydroxy-2-pyrimidyl)piperazine-2,6-dione]	4.2	3.0	12.7	100.0	100.0	bind ions	protecting against H2O2 induced loss of cell viability	did not alter	No apparent toxic effects	19	9	did not alter	now present	ca. 3 fold	delayed	38	53	No apparent toxic effects
COc1nc(N2CC(=O)N(S(=O)(=O)N(C)C)C(=O)C2)nc(OC)c1O [JHX-8, 1-N,N′-dimethylsulfamoyl-4-(4,6-dimethoxy-5-hydroxy-2-pyrimidyl)piperazine-2,6-dione]	4.0	3.6	14.6	100.0	100.0	bind ions	protecting against H2O2 induced loss of cell viability	did not alter	No apparent toxic effects	11	3	did not alter	now present	ca. 3 fold	delayed	47	58	No apparent toxic effects
